Measurements as given in patent US7179823B1, “5-membered n-heterocyclic compounds with hypoglycemic and hypolipidemic activity” (Takeda Pharmaceutical Company Limited, priority 1999, dated 2007).
Read-outs that look alike come from different tables or passages of the source.

Experiments:
PPARγ-RXRα heterodimer = target: T1, PPARγ-RXRα heterodimer (Homo sapiens, UniProt P37231); experiment: PPARγ-RXRα heterodimer ligand activity (luciferase reporter, PPARγ:RXRα:4ERPP/CHO-K1 cells); format: cell-based; conditions: 48 hours, concentration for 50% of the maximum fold induction
T1 construct: expressed in transfected cells; host or cells: CHO-K1
T1 sequence (P37231 1-477 isoform P37231-2): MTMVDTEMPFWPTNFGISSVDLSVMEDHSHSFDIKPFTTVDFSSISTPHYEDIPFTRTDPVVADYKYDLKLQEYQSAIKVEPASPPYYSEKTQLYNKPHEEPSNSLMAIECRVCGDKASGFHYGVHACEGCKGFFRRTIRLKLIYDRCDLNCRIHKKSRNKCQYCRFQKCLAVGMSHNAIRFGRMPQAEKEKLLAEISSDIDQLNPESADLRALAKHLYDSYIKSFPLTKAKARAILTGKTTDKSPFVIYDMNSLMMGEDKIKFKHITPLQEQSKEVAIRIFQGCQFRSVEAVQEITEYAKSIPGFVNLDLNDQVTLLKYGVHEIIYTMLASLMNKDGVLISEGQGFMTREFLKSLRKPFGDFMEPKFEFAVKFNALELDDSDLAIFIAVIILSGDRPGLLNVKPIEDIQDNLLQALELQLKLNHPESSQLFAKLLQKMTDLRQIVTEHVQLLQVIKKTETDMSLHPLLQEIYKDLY
T1 sequence (P19793 1-462 partner): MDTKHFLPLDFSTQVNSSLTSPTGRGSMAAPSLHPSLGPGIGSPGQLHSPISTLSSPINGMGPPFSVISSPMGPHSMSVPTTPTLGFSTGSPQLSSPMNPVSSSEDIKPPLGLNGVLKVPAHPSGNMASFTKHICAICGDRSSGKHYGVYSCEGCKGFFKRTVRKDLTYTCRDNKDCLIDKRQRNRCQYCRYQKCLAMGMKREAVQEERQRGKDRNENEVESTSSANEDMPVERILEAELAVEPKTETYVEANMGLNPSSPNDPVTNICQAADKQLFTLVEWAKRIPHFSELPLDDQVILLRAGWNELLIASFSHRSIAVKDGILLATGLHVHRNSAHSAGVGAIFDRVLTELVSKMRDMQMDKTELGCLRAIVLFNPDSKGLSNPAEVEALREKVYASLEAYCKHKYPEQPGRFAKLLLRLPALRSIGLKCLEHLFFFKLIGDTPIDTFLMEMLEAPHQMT
Protocol: (PPARγ-RXRα Heterodimer Ligand Activity)
A PPARγ:RXRα:4ERPP/CHO-K1 cells obtained in Reference Example 5 described later were cultured in HAM F12 medium (produced by NISSUI SEIYAKU) containing 10% Fetal bovine serum (produced by Life Technologies, Inc., USA) and then inoculated to a 96-well white plate (produced by Corning Costar Corporation, USA) at the density of 2×10^4 cells/well, and cultured in a CO2 gas incubator at 37° C. overnight.
After washing the 96 well white plate with PBS (Phosphate-buffered saline), 90 μl of HAM F12 medium containing 0.1% fatty acid-free bovine serum albumin (BSA) and 10 μl of test compound were added, which was cultured in a CO2 gas incubator at 37° C. for 48 hours. After removing the medium, 40 μl of PIKKAGENE 7.5 (produced by Wako Pure Chemical Industries, Ltd.) was added. After stirring, the luciferase activity was determined using Lumistar (produced by BMG Labtechnologies GmbH, Germany).
A fold induction was calculated based on the luciferase activity of each test compound by taking the luciferase activity in the non-treatment group as 1. The values of the test compound concentration and the fold induction were analyzed using PRISM 2.01 (produced by GraphPad Software Inc. USA) to calculate the EC50 values, the effective concentration of a test compound for 50% of the maximum fold induction.
(Introduction of Human PPARγ- and RXRα-Expressing Plasmid and Reporter Plasmid into CHO-K1 Cell and Establishment of Expressed Cell)
After a CHO-K1 cell cultured in a 750 ml tissue culture flask (produced by Corning Costar Corporation, USA) containing HAM F12 medium (produced by NISSUI SEIYAKU) supplemented with 10% Fetal Bovine Serum (produced by Life Technologies, Inc., USA) was scraped by treating with 0.5 g/L trypsin-0.2 g/L EDTA (ethylenediaminetetraacetic acid) (produced by Life Technologies, Inc., USA), the cell was washed with PBS (phosphate-buffered saline) (produced by Life Technologies, Inc., USA), centrifuged (1000 rpm, 5 minutes), and then suspended in PBS. Subsequently, a DNA was introduced into the cell under the condition shown below using GENE PULSER (produced by Bio-Rad Laboratories, USA).
Namely, to a cuvette having a 0.4 cm gap, added were 8×10^6 cells and 10 μg of plasmid pVgRXR2-hPPAR γ obtained in Reference Example 3 and 10 μg of reporter plasmid pGL3-4ERPP-TK neo obtained in Reference Example 4, which was subjected to electroporation at the voltage of 0.25 kV under the capacitance of 960 μF. Subsequently, the cell was transferred into a HAM F12 medium containing 10% Fetal Bovine Serum and cultured for 24 hours and then the cell was scraped again and centrifuged, and then suspended in HAM F12 medium containing 10% Fetal Bovine Serum supplemented with 500 μg/ml of GENETICIN (produced by Life Technologies, Inc., USA) and 250 μg/ml of ZEOCIN (produced by Invitrogen, USA) and diluted to the density of 10^4 cells/ml upon inoculation to a 96-well plate (produced by Corning Costar Corporation, USA), which was cultured in a CO2 gas incubator at 37° C., whereby obtaining a GENETICIN- and ZEOCIN-resistant transformant.
Subsequently, after the transformant cell line thus obtained was cultured in a 24-well plate (produced by Corning Costar Corporation, USA), selected was a cell line in which the luciferase was expressed and induced, i.e., PPARγ:RXRα:4ERPP/CHO-K1 cell by addition of 10 μM pioglitazone hydrochloride.

KKA^y mice = experiment: Hypoglycemic and hypolipidemic actions in mice; format: in vivo; conditions: Mus musculus, po, 96 h, four days; for inhibition in vivo at 0.001 %: 0.001% in powdery diet; for inhibition in vivo at 0.01 %: 0.01% in powdery diet; for inhibition in vivo at 0.0003 %: 0.0003% in powdery diet; for inhibition in vivo at 0.005 %: 0.005% in powdery diet
Description: Hypoglycemic and Hypolipidemic Actions in Mice
Test compounds were mixed in a powdery diet (CE-2, Japan Clea) at the concentration of 0.01% (compounds of Examples 12, 30, 89, 186), 0.005% (compounds of Examples 7, 80, 82, 181, 182, 184, 256, 262, 283), 0.001% (compounds of Examples 9, 104, 110, 155, 156, 160, 167, 169, 172, 174, 176, 189), or 0.0003% (compounds of Examples 38, 40, 44), and freely given to KKA^y mice (9 to 12 weeks old, 5 mice in a group), a model of obese and type 2 diabetes mellitus, for four days. During this period, water was given freely. Blood was sampled from orbital venous plexus, and glucose and triglyceride levels in plasma separated from blood were determined enzymatically using L type Wako Glu2 (Wako Pure Chemical Industries, Ltd.) or L type Wako TG•H (Wako Pure Chemical Industries, Ltd.), respectively.
In the Table, the value of each treatment group is represented as percent reduction compared with the non-treatment group.

[1] = percent reduction of plasma glucose compared with the non-treatment group, read-out: Hypoglycemic action (%)
[2] = percent reduction of plasma triglyceride compared with the non-treatment group, read-out: Hypolipidemic action (%)

Row | melting point | EC50 (PPARγ-RXRα heterodimer) | SMILES | inhibition in vivo at 0.001 % (KKA^y mice; [1]) | inhibition in vivo at 0.001 % (KKA^y mice; [2]) | inhibition in vivo at 0.01 % (KKA^y mice; [1]) | inhibition in vivo at 0.01 % (KKA^y mice; [2]) | inhibition in vivo at 0.0003 % (KKA^y mice; [1]) | inhibition in vivo at 0.0003 % (KKA^y mice; [2]) | inhibition in vivo at 0.005 % (KKA^y mice; [1]) | inhibition in vivo at 0.005 % (KKA^y mice; [2])
1 | 117 to 118 °C | 1.5 nM | Cc1oc(-c2cccs2)nc1COc1ccc(Cn2cc(CCC(=O)O)c(-c3ccccc3)c2)cc1 [Example 9, 3-[1-[4-[5-methyl-2-(2-thienyl)-4-oxazolylmethoxy]benzyl]-4-phenyl-3-pyrrolyl]propionic acid] | 48% | 70% | – | – | – | – | – | –
2 | 131 to 132 °C | 320 nM | O=C(O)CCc1cn(Cc2ccc(OCc3cccnc3)cc2)cc1-c1ccccc1 [Example 12, 3-[4-phenyl-1-[4-(3-pyridylmethoxy)benzyl]-3-pyrrolyl]propionic acid] | – | – | 46% | 63% | – | – | – | –
3 | 111 to 112 °C | 9.7 nM | O=C(O)CCc1cn(Cc2ccc(OCc3csc(-c4ccccc4)n3)cc2)cc1-c1ccccc1 [Example 30, 3-[4-phenyl-1-[4-(2-phenyl-4-thiazolylmethoxy)benzyl]-3-pyrrolyl]propionic acid] | – | – | 54% | 77% | – | – | – | –
4 | 114 to 115 °C | 38 nM | O=C(O)CCc1cn(Cc2ccc(OCc3csc(-c4ccco4)n3)cc2)cc1-c1ccccc1 [Example 38, 3-[1-[4-[2-(2-furyl)-4-thiazolylmethoxy]benzyl]-4-phenyl-3-pyrrolyl]propionic acid] | – | – | – | – | 44% | 69% | – | –
5 | 106 to 107 °C | 57 nM | O=C(O)CCc1cn(Cc2ccc(OCc3csc(-c4cccs4)n3)cc2)cc1-c1ccccc1 [Example 40, 3-[4-phenyl-1-[4-[2-(2-thienyl)-4-thiazolylmethoxy]benzyl]-3-pyrrolyl]propionic acid] | – | – | – | – | 41% | 66% | – | –
6 | 139 to 140 °C | 13 nM | O=C(O)CCc1cn(Cc2ccc(OCc3coc(-c4ccccc4)n3)cc2)cc1-c1ccccc1 [Example 44, 3-[4-phenyl-1-[4-(2-phenyl-4-oxazolylmethoxy]benzyl]-3-pyrrolyl]propionic acid] | – | – | – | – | 47% | 74% | – | –
7 | 179 to 180 °C | 0.23 nM | Cc1oc(-c2ccccc2)nc1COc1ccc(Cn2cc(CCC(=O)O)c(-c3ccccc3)n2)cc1 [Example 89, 3-[1-[4-(5-methyl-2-phenyl-4-oxazolylmethoxy)benzyl]-3-phenyl-1H-pyrazol-4-yl]propionic acid] | – | – | 48% | 70% | – | – | – | –
8 | 126 to 127 °C | 33 nM | CCOc1nn(Cc2ccc(OCc3nc(-c4ccccc4)oc3C)nc2)cc1CC(=O)O [Example 262, 3-ethoxy-1-[6-(5-methyl-2-phenyl-4-oxazolylmethoxy)-3-pyridylmethyl]-1H-pyrazol-4-ylacetic acid] | – | – | – | – | – | – | 45% | 61%
9 | – | 0.22 nM | Cc1oc(-c2ccccc2)nc1COc1ccc(Cn2cc(CCC(=O)O)c(-c3ccccc3)n2)cn1 [Example 283, 3-[1-[2-(5-methyl-2-phenyl-4-oxazolylmethoxy)-5-pyridylmethyl]-3-phenyl-1H-pyrazol-4-yl]propionic acid] | – | – | – | – | – | – | 52% | 78%
